Test results from patent publication US20220259655A1, “METHODS FOR ASSESSING THE RISK OF DEVELOPING SEVERE CUTANEOUS ADVERSE DRUG REACTIONS INDUCED BY DISEASE-MODIFYING ANTIRHEUMATIC DRUGS, DETECTION KIT THEREOF AND USES THEREOF” (CHANG GUNG MEMORIAL HOSPITAL, LINKOU, priority 2019, published 2022).
Where two headings read alike, the source gives them in different places.

Key:
HLA-B*3802 allele = HLA-B*3802 allele (Homo sapiens, UniProt P01889, A182T/A93T/A95T/C349S/D138N/D201E/D98Y/E176V/E187T/E204Q/G107R/K202T/L105A/N104T/Q94N/R106L/R155S/R180L/S101N/S121R/Y140F/Y91C); details: HLA-B*38:02
HLA-B*3901 allele = HLA-B*3901 allele (Homo sapiens, UniProt P01889, A182T/A93T/A95T/C349S/D138N/D201E/E176V/E187T/E204Q/K202T/Q94N/R155S/R180L/S121R/Y140F/Y91C); details: HLA-B*39:01
[1] = patients taking sulfasalazine; clinical setting; cited from earlier work
HLA-B*1502 allele = HLA-B*1502 allele (Homo sapiens, UniProt P01889, A329T/A93T/A95T/C349S/D201E/D98Y/E187L/E204Q/E69M/E70A/H137Y/K202T/L119I/Q94N/R155S/R180L/S121R/S35A/S48A/T118I/V306I/V36M/Y140S/Y91S); details: HLA-B*15:02
[2] = test system: combination of HLA-B*1301 allele, HLA-B*1502 allele, HLA-B*3802 allele and HLA-B*3901 allele; details: in vivo
[3] = test system: combination of HLA-B*1301 allele, HLA-B*3802 allele and HLA-B*3901 allele; details: in vivo
[4] = test system: combination of HLA-B*1502 allele and HLA-B*3802 allele; details: in vivo
HLA-B*1301 allele = HLA-B*1301 allele (Homo sapiens, UniProt P01889, A65T/A93T/A95T/D138N/D201E/D98Y/E176V/E204Q/E69M/E70A/G107R/K202T/L105A/L119I/N104T/N87E/Q94N/R106L/R155S/R169L/R180L/S101N/S121R/S35A/S48T/T118I/V127L/V36M/Y140L/Y91S); details: HLA-B*13:01
[5] = test system: combination of HLA-B*1301 allele and HLA-B*3901 allele; details: in vivo
[6] = Sulfasalazine-DRESS vs healthy control
[7] = Sulfasalazine-SCAR vs healthy control
[8] = Sulfasalazine-SJS/TEN patients, listed as sulfasalazine
[9] = Sulfasalazine-SJS/TEN vs healthy control
[10] = Sulfasalazine-SJS/TEN vs healthy control, listed as sulfasalazine
[11] = Sulfasalazine-DRESS patients, listed as sulfasalazine
[12] = Sulfasalazine-DRESS vs healthy control, listed as sulfasalazine

- Sensitivity (%) (HLA-B*3802 allele; Sulfasalazine-DRESS): 0%
- Specificity (%) (HLA-B*3802 allele; Sulfasalazine-DRESS): 92.45%
- SCAR N (%) carrying the allele (HLA-B*3802 allele; Sulfasalazine-DRESS patients): 0/21
- Odds Ratio (95% CI) (HLA-B*3802 allele; [6]): 0.3
- Sensitivity (%) (HLA-B*3802 allele; Sulfasalazine-SCAR): 18.75%
- Specificity (%) (HLA-B*3802 allele; Sulfasalazine-SCAR): 92.45%
- SCAR N (%) carrying the allele (HLA-B*3802 allele; Sulfasalazine-SCAR patients): 6/32
- Odds Ratio (95% CI) (HLA-B*3802 allele; [7]): 2.8
- Sensitivity (%) (HLA-B*3802 allele; Sulfasalazine-SJS/TEN): 54.54%
- Specificity (%) (HLA-B*3802 allele; Sulfasalazine-SJS/TEN): 92.45%
- SCAR N (%) carrying the allele (HLA-B*3802 allele; Sulfasalazine-SJS/TEN patients): 6/11
- SCAR N (%) carrying the allele (HLA-B*3802 allele; [8]): 6 out of 11
- Odds Ratio (95% CI) (HLA-B*3802 allele; [9]): 14.7
- Odds Ratio (95% CI) (HLA-B*3802 allele; [10]): 14.7 (4.4-49.4)
- Sensitivity (%) (HLA-B*3901 allele; Sulfasalazine-DRESS): 38.10%
- Specificity (%) (HLA-B*3901 allele; Sulfasalazine-DRESS): 95.43%
- SCAR N (%) carrying the allele (HLA-B*3901 allele; Sulfasalazine-DRESS patients): 8/21
- SCAR N (%) carrying the allele (HLA-B*3901 allele; [11]): 8 of 21
- Odds Ratio (95% CI) (HLA-B*3901 allele; [6]): 12.2
- Odds Ratio (95% CI) (HLA-B*3901 allele; [12]): 12.2 (4.6-32.5)
- Sensitivity (%) (HLA-B*3901 allele; Sulfasalazine-SCAR): 28.13%
- Specificity (%) (HLA-B*3901 allele; Sulfasalazine-SCAR): 95.43%
- SCAR N (%) carrying the allele (HLA-B*3901 allele; Sulfasalazine-SCAR patients): 9/32
- Odds Ratio (95% CI) (HLA-B*3901 allele; [7]): 8.2
- Sensitivity (%) (HLA-B*3901 allele; Sulfasalazine-SJS/TEN): 0%
- Specificity (%) (HLA-B*3901 allele; Sulfasalazine-SJS/TEN): 95.43%
- SCAR N (%) carrying the allele (HLA-B*3901 allele; Sulfasalazine-SJS/TEN patients): 0/11
- Odds Ratio (95% CI) (HLA-B*3901 allele; [9]): 1.1
- Sensitivity (%) (HLA-B*1502 allele; Sulfasalazine-DRESS): 9.53%
- Specificity (%) (HLA-B*1502 allele; Sulfasalazine-DRESS): 90.75%
- SCAR N (%) carrying the allele (HLA-B*1502 allele; Sulfasalazine-DRESS patients): 2/21
- Odds Ratio (95% CI) (HLA-B*1502 allele; [6]): 1.0
- Sensitivity (%) (HLA-B*1502 allele; Sulfasalazine-SCAR): 21.88%
- Specificity (%) (HLA-B*1502 allele; Sulfasalazine-SCAR): 90.75%
- SCAR N (%) carrying the allele (HLA-B*1502 allele; Sulfasalazine-SCAR patients): 7/32
- Odds Ratio (95% CI) (HLA-B*1502 allele; [7]): 2.7
- Sensitivity (%) (HLA-B*1502 allele; Sulfasalazine-SJS/TEN): 45.45%
- Specificity (%) (HLA-B*1502 allele; Sulfasalazine-SJS/TEN): 90.75%
- SCAR N (%) carrying the allele (HLA-B*1502 allele; Sulfasalazine-SJS/TEN patients): 5/11
- SCAR N (%) carrying the allele (HLA-B*1502 allele; [8]): 5 out of 11
- Odds Ratio (95% CI) (HLA-B*1502 allele; [9]): 8.2
- Odds Ratio (95% CI) (HLA-B*1502 allele; [10]): 8.2 (2.4-27.4)
- SCAR N (%) carrying the alleles [2]: 24/32
- Sensitivity (%) [2]: 75.00%
- Specificity (%) [2]: 60.35%
- SCAR N (%) carrying the alleles [3]: 22/32
- Sensitivity (%) [3]: 68.75%
- Specificity (%) [3]: 78.32%
- Specificity (%) [4]: 83.74%
- Sensitivity (%) (HLA-B*1301 allele; Sulfasalazine-DRESS): 38.10%
- Specificity (%) (HLA-B*1301 allele; Sulfasalazine-DRESS): 87.89%
- SCAR N (%) carrying the allele (HLA-B*1301 allele; Sulfasalazine-DRESS patients): 8/21
- SCAR N (%) carrying the allele (HLA-B*1301 allele; [11]): 8 of 21
- Odds Ratio (95% CI) (HLA-B*1301 allele; [6]): 4.5
- Odds Ratio (95% CI) (HLA-B*1301 allele; [12]): 4.5 (1.8-11.0)
- Sensitivity (%) (HLA-B*1301 allele; Sulfasalazine-SCAR): 28.13%
- Specificity (%) (HLA-B*1301 allele; Sulfasalazine-SCAR): 87.89%
- SCAR N (%) carrying the allele (HLA-B*1301 allele; Sulfasalazine-SCAR patients): 9/32
- Odds Ratio (95% CI) (HLA-B*1301 allele; [7]): 2.8
- Sensitivity (%) (HLA-B*1301 allele; Sulfasalazine-SJS/TEN): 9.09%
- Specificity (%) (HLA-B*1301 allele; Sulfasalazine-SJS/TEN): 87.89%
- SCAR N (%) carrying the allele (HLA-B*1301 allele; Sulfasalazine-SJS/TEN patients): 1/11
- Odds Ratio (95% CI) (HLA-B*1301 allele; [9]): 0.7
- Specificity (%) [5]: 83.95%
Structure (SMILES): O=C(O)c1cc(/N=N/c2ccc(S(=O)(=O)Nc3ccccn3)cc2)ccc1O [Sulfasalazine]
- patients developing obvious side effects [1]: Approximately 25%
